# Assay results: patent publication US9546139B2, “Pyridine carboxylic acid based compound used as a P2X1 and P2X3 receptor antagonist, a production method for the same and a composition comprising the same” (GWANGJU INSTITUTE OF SCIENCE AND TECHNOLOGY, priority 2010, dated 2017)
# Columns and labels:
# Format in all cases: cell-based
# mouse P2X1 receptor = target: T1, mouse P2X1 receptor (Mus musculus, UniProt P51576); assay: Two-electrode voltage clamp, ATP-induced ion current in Xenopus oocytes expressing mouse P2X1; settings: for inhibition at 10 µM / % inhibition mP2X1: Table 2, 10 μM compound, ion current induced by 2 μM ATP, mean ± SEM, n = 4; for inhibition at 10 µM: read-out: % inhibition mP2X1; for Hill coefficient: concentration-inhibitory curve, 2 μM ATP (FIG. 1B, FIG. 2A); for IC50: concentration-response curve, 2 μM ATP, mean of four observations, read-out: IC50 value
# T1 construct: EST clones containing full-length cDNAs of mouse P2X1 (clone ID: 4189541) and human P2X7 receptor (clone ID: 5286944); host or cells: Xenopus oocytes (cRNA injected)
# T1 sequence (P51576 1-399): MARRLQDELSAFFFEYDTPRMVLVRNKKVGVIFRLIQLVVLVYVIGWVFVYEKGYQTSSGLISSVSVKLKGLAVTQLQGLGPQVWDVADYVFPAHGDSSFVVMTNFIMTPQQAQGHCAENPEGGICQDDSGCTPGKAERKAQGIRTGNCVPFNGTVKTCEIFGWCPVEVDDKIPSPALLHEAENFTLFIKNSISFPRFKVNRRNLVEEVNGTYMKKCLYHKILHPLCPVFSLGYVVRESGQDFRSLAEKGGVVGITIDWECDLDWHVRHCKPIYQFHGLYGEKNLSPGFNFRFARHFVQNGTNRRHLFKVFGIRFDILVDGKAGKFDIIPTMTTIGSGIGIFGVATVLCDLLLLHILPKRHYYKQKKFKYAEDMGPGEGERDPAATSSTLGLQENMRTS
# Protocol: 1-1. Antagonistic Activity at Recombinant Mouse P2X1 and Human P2X3 Receptors
# (§1) Xenopus oocytes were harvested and prepared with method as previously described in publications. Defolliculated oocytes were injected cytosolically with mouse P2X1 and human P2X3 receptor cRNA ([…], 1 μg/mL), respectively, incubated for 24 hrs at 18° C. in Barth's solution and kept for up to 12 days at 4° C. until used in electrophysiological experiments. ATP-activated membrane currents (Vh=−70 mV) were recorded from cRNA-injected oocytes using the twin-electrode voltage-clamp technique (Axoclamp 2B amplifier). Voltage recording (1-2 MΩ tip resistance) and current-recording microelectrodes (5 MΩ tip resistance) were filled with 3.0 M KCl. Oocytes were held in an electrophysiological chamber and superfused with Ringer's solution (5 mL/min, at 18° C.) containing (mM) NaCl, 110; KCl, 2.5; HEPES, 5; BaCl2, 1.8, adjusted to pH 7.5. ATP was superfused over the oocytes for 60-120s then washed out for a period of 20 min. For inhibition curves, data were normalized to the current evoked by ATP, at pH 7.5. Test substances were added for 20 min prior to ATP exposure; all peptides were tested for reversibility of their effects. The concentration required to inhibit the ATP response by 50% (IC50) was taken from Hill plots constructed using the formula: log(I/Imax−1), where I is the current evoked by ATP in the presence of an antagonist. Data are presented as mean±SEM (n=4) for the data from different batches of oocytes.
# human P2X3 receptor = target: T2, human P2X3 receptor (Homo sapiens, UniProt P56373); assay: Two-electrode voltage clamp, ATP-induced ion current in Xenopus oocytes expressing human P2X3; settings: for inhibition at 10 µM: read-out: % inhibition hP2X3; for inhibition at 0.1 µM: concentration of 100 nM, receptor not stated in the sentence (follows FIG. 2B, human P2X3), read-out: % inhibition; for Hill coefficient: concentration-inhibitory curve, 2 μM ATP (FIG. 1C, FIG. 2B); for IC50: concentration-response curve, 2 μM ATP, mean of four observations, read-out: IC50 value
# T2 construct: expressed in transfected cells; host or cells: Xenopus oocytes (cRNA injected); cDNA from the Max-Planck Institute laboratory (Dr. W. Stuhmer and Dr. F. Soto)
# T2 sequence (P56373 1-397): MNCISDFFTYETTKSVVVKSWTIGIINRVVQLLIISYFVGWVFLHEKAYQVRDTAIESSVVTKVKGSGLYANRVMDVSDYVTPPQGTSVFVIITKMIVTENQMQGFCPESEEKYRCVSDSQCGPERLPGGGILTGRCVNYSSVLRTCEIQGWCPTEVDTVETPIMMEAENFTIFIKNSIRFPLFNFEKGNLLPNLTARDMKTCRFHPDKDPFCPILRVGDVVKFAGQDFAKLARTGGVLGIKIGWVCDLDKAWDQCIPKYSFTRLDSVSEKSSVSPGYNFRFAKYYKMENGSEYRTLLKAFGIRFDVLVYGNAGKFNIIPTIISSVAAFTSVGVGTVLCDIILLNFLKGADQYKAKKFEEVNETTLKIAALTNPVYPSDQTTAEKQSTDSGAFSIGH
# Protocol: Antagonistic Activity at Recombinant Mouse P2X1 and Human P2X3 Receptors
# as §1
# human P2X7 receptor = target: T3, human P2X7 receptor (Homo sapiens, UniProt Q99572); assay: Ethidium+ accumulation assay in human P2X7-expressing HEK293 cells; settings: 10 μM compound, ethidium+ accumulation induced by 6 μM BzATP, n = 3
# T3 construct: EST clones containing full-length cDNAs of mouse P2X1 (clone ID: 4189541) and human P2X7 receptor (clone ID: 5286944); host or cells: HEK293
# T3 sequence (Q99572 1-595): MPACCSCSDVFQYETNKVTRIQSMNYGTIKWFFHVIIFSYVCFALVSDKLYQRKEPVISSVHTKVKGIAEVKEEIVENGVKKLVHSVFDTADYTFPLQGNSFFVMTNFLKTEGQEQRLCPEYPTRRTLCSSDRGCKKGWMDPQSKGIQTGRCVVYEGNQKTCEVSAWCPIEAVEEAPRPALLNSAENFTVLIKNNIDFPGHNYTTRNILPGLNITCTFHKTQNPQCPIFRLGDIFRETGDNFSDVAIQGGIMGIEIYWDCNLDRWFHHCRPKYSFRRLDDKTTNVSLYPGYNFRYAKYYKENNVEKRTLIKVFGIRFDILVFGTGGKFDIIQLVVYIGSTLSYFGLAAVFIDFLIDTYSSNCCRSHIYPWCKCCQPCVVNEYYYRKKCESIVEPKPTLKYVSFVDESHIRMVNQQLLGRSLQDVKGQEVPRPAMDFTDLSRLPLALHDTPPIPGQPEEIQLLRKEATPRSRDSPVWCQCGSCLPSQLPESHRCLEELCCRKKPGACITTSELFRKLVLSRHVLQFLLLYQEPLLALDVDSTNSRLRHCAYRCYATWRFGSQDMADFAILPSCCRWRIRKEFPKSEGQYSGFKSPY
# Protocol: 1-2. Ethidium^+ Accumulation Assay at Human P2X7 Receptors
# Human P2X7-expressing HEK293 cells were grown as monolayer culture at 37° C. in a humidified atmosphere of 5% CO2, DMEM supplemented with 10% fetal bovine serum. Cells were harvested with treatment of Trypsin/EDTA solution, collected by centrifugation (200 g for 5 min).
# The cells were resuspended at 2.5×10^6 cells/mL in assay buffers, consisting of (in mM) HEPES 10, KCl 140, glucose 5, EDTA 1 (pH 7.4), and then ethidium bromide (100 μM) was added. Cell suspensions were added to 96 well plates containing the P2X7 receptor agonist, ATP or BzATP, at 2×10^5 cells/wells. Plates were incubated at 37° C. for 120 min and cellular accumulation of ethidium^+ was determined by measuring fluorescence with Bio-Tek instrument FL600 fluorescent plate reader (excitation wavelength of 530 nm and emission wavelength of 590 nm). When the effects of antagonists, such as PPADS, KN62, and test peptides were studied, antagonists were treated together with agonist without pre-incubation.
# [1] = Table 2, 10 μM compound, ion current induced by 2 μM ATP, mean ± SEM, n = 4
SMILES,inhibition at 10 µM (mouse P2X1 receptor) [%],inhibition at 10 µM (human P2X3 receptor; [1]) [%],% inhibition hP2X7 (human P2X7 receptor),% inhibition mP2X1 (mouse P2X1 receptor) [%],Hill coefficient (mouse P2X1 receptor),IC50 (mouse P2X1 receptor) [nM],inhibition at 0.1 µM (human P2X3 receptor) [%],Hill coefficient (human P2X3 receptor),IC50 (human P2X3 receptor) [nM],% inhibition hP2X3 (human P2X3 receptor; [1]) [%]
"Cc1nc(Cc2ccccc2)c(C(=O)O)c(C(=O)O)c1O [Compound 35, 2-Benzyl-5-hydroxy-6-methyl-pyridine-3,4-dicarboxylic acid]",54.2 ± 10.6,31.4 ± 6.2,inactive,–,–,–,–,–,–,–
"Cc1nc(CCc2ccccc2)c(C(=O)O)c(C(=O)O)c1O [Compound 36, 5-Hydroxy-6-methyl-2-phenethyl-pyridine-3,4-dicarboxylic acid]",77,51 ± 9.8,inactive,73.4 ± 9.7,−1.03±0.21,361,38.3,−0.63±0.20,432,–
"COc1ccc(CCc2nc(C)c(O)c(C(=O)O)c2C(=O)O)cc1 [Compound 37, 5-Hydroxy-2-[2-(4-methoxy-phenyl)ethyl]-6-methyl-pyridine-3,4-dicarboxylic acid]",78,59.8 ± 4.6,inactive,77.0 ± 3.8,–,–,–,–,–,–
"Cc1nc(C=Cc2ccccc2)c(C(=O)O)c(C(=O)O)c1O [Compound 38, 5-Hydroxy-6-methyl-2-styryl-pyridine-3,4-dicarboxylic acid]",71.4 ± 4.3,48.4 ± 9,inactive,–,−0.98±0.11,509,19.2,−0.52±0.12,782,–
"Cc1nc(CCc2ccc(C(=O)O)cc2)c(C(=O)O)c(C(=O)O)c1O [Compound 39, 2-[2-(4-Carboxy-phenyl)-ethyl]-5-hydroxy-6-methyl-pyridine-3,4-dicarboxylic acid]",82,68.9 ± 11.7,inactive,82.7 ± 6.0,−1.00±0.09,186,34,−0.58±0.27,339,–
"COc1cccc(CCc2nc(C)c(O)c(C(=O)O)c2C(=O)O)c1 [Compound 40, 5-Hydroxy-2-[2-(3-methoxy-phenyl)-ethyl]-6-methyl-pyridine-3,4-dicarboxylic acid]",52.4 ± 6.2,39.3 ± 3.8,inactive,–,–,–,–,–,–,–
"COc1ccccc1CCc1nc(C)c(O)c(C(=O)O)c1C(=O)O [Compound 41, 5-Hydroxy-2-[2-(2-methoxy-phenyl)-ethyl]-6-methyl-pyridine-3,4-dicarboxylic acid]",49.8 ± 5.4,34.5 ± 4.3,inactive,–,–,–,–,–,–,–
"CC(=O)c1c(O)c(C)nc(Cc2ccccc2)c1C(=O)O [Compound 44, 4-acetyl-2-benzyl-5-hydroxy-6-methylnicotinic acid]",46,18.3 ± 6.4,inactive,44.2 ± 4.0,–,–,–,–,–,–
"CC(=O)c1c(O)c(C)nc(CCc2ccccc2)c1C(=O)O [Compound 45, 4-acetyl-5-hydroxy-6-methyl-2-phenethylnicotinic acid]",47.9 ± 8.1,37.3 ± 10,inactive,–,–,–,–,–,–,–
"COc1ccc(CCc2nc(C)c(O)c(C(C)=O)c2C(=O)O)cc1 [Compound 46, 4-acetyl-5-hydroxy-2-(4-methoxyphenethyl)-6-methylnicotinic acid]",52 ± 7.1,42.2 ± 7.5,inactive,–,–,–,–,–,–,–
"CC(=O)c1c(O)c(C)nc(/C=C/c2ccccc2)c1C(=O)O [Compound 47, (E)-4-acetyl-5-hydroxy-6-methyl-2-styrylnicotinic acid]",40.4 ± 1.3,27.4 ± 5.5,inactive,–,–,–,–,–,–,–
"COc1cccc(/C=C/c2nc(C)c(O)c(C(C)=O)c2C(=O)O)c1 [Compound 48, (E)-4-acetyl-5-hydroxy-2-(3-methoxystyryl)-6-methylnicotinic acid]",29.9 ± 5.7,15.8 ± 9,inactive,–,–,–,–,–,–,–
"COc1ccccc1/C=C/c1nc(C)c(O)c(C(C)=O)c1C(=O)O [Compound 49, (E)-4-acetyl-5-hydroxy-2-(2-methoxystyryl)-6-methylnicotinic acid]",11.4 ± 3.3,6.3 ± 2.3,inactive,–,–,–,–,–,–,–
"Cc1nc(Cc2cccc3ccccc23)c(C(=O)O)c(C(=O)O)c1O [Compound 50, 5-Hydroxy-6-methyl-2-(naphthalene-1-ylmethyl)pyridine-3,4-dicarboxylic acid]",48.3 ± 4.1,67.9 ± 5.2,inactive,–,–,–,–,–,–,–
"Cc1nc(CC(c2ccccc2)c2ccccc2)c(C(=O)O)c(C(=O)O)c1O [Compound 51, 2-(2,2,-diphenylethyl)5-hydroxy-6-methylpyridine-3,4-dicarboxylic acid]",–,–,inactive,53.9 ± 5.1,–,–,–,–,–,62.9 ± 7.1
"COc1ccc(CCc2nc(C)c(O)c(C=O)c2CCC(=O)O)cc1 [Compound 61, 3-(4-formyl-5-hydroxy-2-(4-methoxyphenethyl)-6-methylpyridin-3-yl)propanoic acid]",50.9 ± 6.1,70.5 ± 4.7,inactive,–,–,–,–,–,–,–
